Measurements reported in patent publication US20240181006A1, “POLYPEPTIDES BINDING ADAMTS5, MMP13 AND AGGRECAN” (Merck Patent GmbH, priority 2017, published 2024).

Tests used:
human cartilage explants = assay: human cartilage explant assay, IL-1β + OSM, GAG release; assay type: cell-based; settings: reference set at 100%, FIG. 4
Method: FIG. 4: Efficacy of polypeptide 949 in a human cartilage explant assay.
Polypeptide 949 (M-A-C-C: 62C02-2F03-114F08-114F08) was tested in human cartilage explant assays for inhibition of cartilage degradation. Briefly, the polypeptide was incubated with human cartilage explants that were cultured 7 days with IL-1β+Oncostatin M (OSM). Within 7 days, degradation of primarily Aggrecan ensues, whereas Collagen degradation only occurs after about two weeks, i.e., after termination of the experiments described here. At the end of the experiment, the GAG (mainly derived from Aggrecan) which was released from the degrading cartilage into the culture supernatant was quantified. The IC50 was calculated on the basis of the negative control level (=GAG release from explants without additional stimulus) and the IL-1 β+OSM level, as measure for maximal GAG loss. GAG is shown as GAG release (in μg) per mg cartilage of each individual explant.

[1] = system: bovine cartilage explants; assay: bovine cartilage explant assay, IL-1α, GAG release (polypeptide 949); assay type: cell-based; settings: 5 days with IL-1α, FIG. 3
Method: FIG. 3: Efficacy of polypeptide 949 (“NB949”) in bovine cartilage explant assay.
In short, the polypeptide was incubated with bovine cartilage explants that were cultured 5 days with IL-1α to induce an OA-like cartilage degradation process. Within 5 days, degradation of primarily Aggrecan ensues, whereas Collagen degradation only occurs after about two weeks, i.e., after termination of the experiments described here. At the end of the experiment, the GAG (mainly derived from Aggrecan) which was released from the degrading cartilage into the culture supernatant was quantified.

CC(C)(Cc1ccc(F)cc1)NC(=O)[C@H](CCC(=O)O)NC(=O)c1ccc(-c2ccccc2)cc1 [AGG-523]
inhibition of stimulated GAG release in human cartilage explant assay (human cartilage explants): fully inhibits
inhibition of bovine cartilage degradation (IL-1α stimulated GAG release) [1]: fully inhibits
